Experimental data as given in patent US20100105777A1, “AMIDE OR THIOAMIDE DERIVATIVES AND THEIR USE IN THE TREATMENT OF PAIN” (CARA THERAPEUTICS, INC., priority 2004, published 2010).

Assays:
Format in all cases: in vivo
[1] = test system: rat model of inflammatory pain (formalin-injected paw); test: Formalin flinch test; conditions: i.p.
Protocol: (§1) Inflammatory (Formalin flinch test) and chronic pain (L5/L6 nerve ligation injury) models were used as assays in both rats and mice.
Animals are habituated to the their local environment for about 30 min prior to testing. The formalin test is carried out in a 30×30×30 cm chamber with the front and bottom of the chambers made of clear plexi-glass. Mirrors are placed at a 45° angle under the chambers in order to have an un-obstructive view of the paws. Animals are restrained manually and 2% formalin (aq) is injected subcutaneously into the planar surface of the left paw with a 30 gauge needle. The numbers of paw flinches are then recorded in 5 min intervals from the time of injection for a 60 min period. Elevations of the paw, licking and biting of the injected paw were counted as “flinches”. The […] or “first phase” of the nociceptive response peaked at 5 min after formalin injection and the inflammatory or “second phase” peaked at 30 min after formalin injection. The number of flinches in the first 10 min were representative of the […] phase and the number of flinches from 10 min until 60 min were representative of the inflammatory phase. Antinociception for both phase I and phase II was calculated as follows: […]
Potency (A50) is calculated from the full dose response curve for both phase I and phase II.

[2] = test system: rat model of chronic pain (L5/L6 spinal nerve ligation); test: L5/L6 nerve ligation injury, tactile allodynia (von Frey)
Protocol: as §1
(§2) Nerve ligation injury was performed according to the method described previously (Kim and Chung). This methodology produces signs of tactile allodynia and thermal hyperalgesia. Rats were anesthetized with halothane and the L5 and L6 spinal nerves were exposed, carefully isolated, and tightly ligated with 4-0 silk suture distal to the dorsal root ganglia (DRG). After ensuring homeostatic stability the wounds were sutured, and the animals were allowed to recover in individual cages. Sham-operated rats were prepared in an identical fashion except that the L5 and L6 spinal nerves were not ligated. Compound 17 was tested in rats after L5/L6 nerve ligation. Compound administration was directly into the hind paw (i.paw) or into the peritoneal cavity (i.p.).
In the evaluation of the tactile allodynia, the paw withdrawal threshold was determined in response to probing with calibrated von Frey filaments. The rats were kept in suspended cages with wire mesh floors and the von Frey filaments were applied perpendicularly to the planar surface of the paw of the rat until it bent slightly, and was held for 3 to 6 s, or until the paw is withdrawn. […] The 50% paw withdrawal threshold was determined by the nonparametric method. […]

[3] = test system: rat model of chronic pain (L5/L6 spinal nerve ligation); test: L5/L6 nerve ligation injury, thermal hyperalgesia
Protocol: as §1, §2

Compound: NC(=O)CCCN(CCCC1CCCCC1)C(=O)Nc1ccccc1 [Compound 17, 4-[1-(3-cyclohexylpropyl)-3-phenylureido]butyramide]
- A50 Formalin Phase I ([1]; phase I (first 10 min)): <0.01 mg/kg
- A50 Formalin Phase II ([1]; phase II (10-60 min)): 0.01 mg/kg
- antiallodynic effect ([2]; 100 μg (in 50 μl) into the paw): 90%
- A50 L5/L6 antiallodynia ([2]; i.paw): <30 mg/paw
- antihyperalgesic response to thermal testing ([3]; 30 μg (in 50 μl) into the paw): 100%
- A50 L5/L6 antihyperalgesia ([3]; i.paw): <30 μg/paw
